{"source": "patent US5770570A", "about": "“Method of delivering a vasoactive intestinal polypeptide, an encapsulated vasoactive intestinal polypeptide, and a method of making the encapsulated vasoactive intestinal polypeptide” (priority 1995, dated 1998)", "key": {"[1]": {"biological_target": "(tyr^10 -^125 I)VIP (radioiodinated synthetic vasoactive intestinal polypeptide)"}, "[2]": {"system": "male golden Syrian hamsters", "assay": "Hypotensive effect (mean arterial blood pressure) in anesthetized hamsters", "type": "in vivo, hamster", "experimental": "The hamsters were first prepared by anesthetizing intravenously 6 mg of sodium pentobarbital per 100 g of body weight. A tracheostomy was then performed to facilitate spontaneous breathing. Supplemental anesthesia was administered intravenously as necessary at 2-4 mg/100 g body weight/hour. A femoral artery was cannulated for blood pressure monitoring. A femoral vein was cannulated for drug and florescent tracer administration.\n(§1) The animals were kept on a heated pad throughout the duration of the experiment. Arterial blood pressure was recorded continuously using a pressure transducer and a strip-chart recorder (Model 7702B, Hewlett-Packard). The microcirculation of the hamster check pouch was visualized using intravital microscopy and clearance of fluorescein isothiocyanic-dextran (M.W.=70 RD; Sigma) from postcapillary venules and determined as described in W. G. Mayhan and I. Rubinstein, J. Appl. Physiol., 75, pp. 27-32 (1993).\nIn each hamster, 1 ml aliquots of increasing concentrations of VIP dissolved in 0.15M sodium chloride or encapsulated in liposomes (1 nmol VIP/0.12 μmol phospholipids) were infused intravenously for 7 minutes.\nMean arterial blood pressure was recorded before, during, and for 60 minutes after administration of each concentration of the peptide.\n(§2) The number of leaky sites in check pouch microcirculation was determined every minute throughout the duration of the experiments as disclosed in W. G. Mayhan, Supra. The data is expressed as means±SEM. Students t-test for unpaired observations was used to compare responses to vasoactive intestinal peptide. A p value<0.05 was considered to be significant.\nThe effect on blood pressure was determined by measuring the magnitude of reduction in mean arterial blood pressure (MAP) as a function of time following infusion of VIP dissolved in saline or encapsulated in liposomes."}, "[3]": {"system": "hamster check pouch microcirculation", "assay": "Untoward effects and leaky sites in check pouch microcirculation", "type": "in vivo", "details": "i.v. infusion in hamsters", "experimental": "as §1, §2"}, "PG/PC/CH liposomes": {"system": "PG/PC/CH liposomes", "assay": "Binding of VIP by pre-formed lipid liposomes (PG/PC/CH)", "details": "for binding of radiolabeled VIP by liposomes, % of available peptide: liposomes 2.5-45.6 mM Pi, 0.42 nM peptide", "experimental": "(§3) Unilaminar phospholipid liposomes were formed using phosphatidylcholine (PC) and phosphatidylglycerol (PG) purified from egg yolk (Sigma). The fatty acid composition of the phospholipids determined by Sigma was: (PC, C16:0), (35%; C18:0, 12%; C18:1, 31%; C18:2, 14%); (PG, C16:0, 30%, C18:0, 13%; C18:1, 30%; C18:2, 16%). The unilamellar liposomes were prepared by reverse-phase evaporation as disclosed in Szoka, Jr., F. and Papahadjopoulos (1978) Proc. Natl. Acad. Sci. USA 75, 4194-4198), from a mixture of PG/PC/CH(cholesterol) (molar ratio 1:4:5) or PC/CH (1:1) dissolved in chloroform.\nPeptide was permitted to bind liposome surface in aqueous solution. In organic solvents as in Example I, the peptide will be expressed in as well as on the lipid membranes of liposomes.\nThe liposomes were the pelleted (12,000×g, 10 min; Beckman centrifuge MICROFUGE®). The supernatant was aspirated and the liposome-associatedradioactivity was measured at 70% efficiency (Beckman model 5500 gamma counter). There was minimal loss of the liposomes in the supernatant, because more than 90% of the inorganic phosphate present in the reaction mixture was recovered in the pellet.\nThe binding data was corrected for peptide adsorption by the reaction tubes determined in parallel incubations.\nDissociation and saturability data were analyzed by means of Kinetic and Enzfitter (Elsevier Biosoft).\nThe binding of the VIP to the liposome was determined as follows. Unilamellar lipid liposomes were prepared by reverse evaporation and assayed for binding of radiolabeled VIP, as described above. BSA was included in the assay diluent to saturate nonspecific polypeptide binding sites in the lipid liposomes and the polypropylene surface of the reaction tubes.\n(§4) Values are means±s.d. Probe-binding was with pre-formed liposomes (2.3 mM Pi) and 100 nM CF or 0.2 nM (tyr^10 -^125 I)VIP mixed with 100 nM unlabeled peptide. Encapsulation was by making liposomes from lipid solutions (2.6 mM Pi) containing 2.5 μM CF or 1.7 nM (Tyr^10 -^125 I)VIP mixed with 2.5 μM unlabeled VIP. Free probes were removed by three washes with 50 mM HEPES, pH 7.3, containing 0.5% BSA. CF values were determined by fluorimetry after solubilization of liposomes, and VIP values, by measurement of liposome-associated radioactivity.\nFIG. 5 illustrates the results of the competitive inhibition of binding of (Tyr^10-^125)VIP (0.26 nM) by the liposomes (2.4 mM Pi) by unlabeled VIP (10 nM-1 mM). Data are means±s.d expressed as % of available radiolabeled peptide. […]"}, "PC/CH liposomes": {"system": "PC/CH liposomes", "assay": "Binding of VIP by electrically neutral liposomes (PC/CH)", "details": "VIP 100 nM", "experimental": "as §3\nThe binding of VIP (100 nM) by electrically neutral and negative liposomes prepared from PC/CH and PG/PC/CH, respectively, was compared. In each case, the levels of peptide binding increased within increasing concentration of the liposomes. The values of % VIP bound±s.d./μmol Pi were, PG/PC/CH liposomes, 26.2+3.4; PC/CH liposomes, 12.6±1.5. […] The inclusion of cholesterol, an agent that can be expected to decrease bilayer fluidity at the temperatures used in this study, as reported in Demel, R. A. and DeKruyff, B. (1976) Biochim. Biophys."}, "PC/PG liposomes": {"system": "PC/PG liposomes", "assay": "Binding of VIP by liposomes without cholesterol (PC/PG)", "details": "PC/PG liposomes (no cholesterol)"}, "[4]": {"assay": "Encapsulation of probes by making liposomes in their presence (Table 1)", "type": "physicochemical", "details": "liposomes made from lipid solutions 2.6 mM Pi containing 2.5 μM probe", "experimental": "as §4"}, "[5]": {"assay": "Release of liposome-bound VIP by solvent treatments (Table 2)", "type": "physicochemical", "details": "twice 1 ml for 10 min, 23° C.", "experimental": "Lipid liposomes (4 mM Pi) were permitted to bind (Tyr^10 -^125 I)VIP (1 nM), washed extensively to remove unbound radioactivity and then treated twice with 1 ml of the indicated solutions for 10 min (23° C.). Released radioactivity was determined in the pooled supernatant obtained by centrifugation. Values are % of initial liposome-bound radioactivity (76,300 CPM), corrected for peptide release in control incubations performed in 50 mM HEPES, pH 7.3 (4.2±3.4%)."}, "[6]": {"assay": "Release (leakage) of VIP from liposomes stored in buffer", "type": "physicochemical", "details": "stored in buffer at 4° C. for 14 days", "experimental": "The release of VIP from the liposomes was determined as follows.\nThe peptide release from liposomes containing (tyr^10 -^125 I)VIP, approximately 20,000 cpm, kept at 4° C. in 50 mM HEPES, pH 7.3, containing 0.02% […] was determined by centrifugation of aliquots of the suspension at 12,400×g for 15 minutes and measurement of radioactivity in the supernatants."}, "[7]": {"details": "pre-formed liposomes 2.3 mM Pi, 100 nM CF or 0.2 nM tracer with 100 nM unlabeled VIP"}}, "note": "pIC50: −log10 of the molar value. “And” between values parts separate entries of the source, which are not always exact repeats. Identical values can stand only once. Ends that are not written are not given here. * marks the point of attachment. 125I = [125I]*"}
{"substance": "trypsin from bovine pancreas (Sigma) (from UniProt P00760) (enzyme)", "values": [{"measurement": "peptide hydrolysis (trichloroacetic acid-soluble radioactivity of (tyr^10 -^125 I)VIP)", "setting": "[1]", "value": 80, "unit": "% digested"}]}
{"substance": "HSDAVFTDNYTRLLRKQMAVKKYLNSILN-NH2 (not fully specified (residue 10); printed as HSDAVFTDNYTRLLRKQMAVKKYLNSILN-NH2) [VIP, synthetic 28-amino acid neuropeptide; conventional VIP solution used as comparator]", "values": [{"measurement": "decrease in MAP", "setting": "[2]; 1 nmole per hamster", "value": "weak and transient decrease in MAP"}, {"measurement": "time at which a significant decrease in MAP was observed", "setting": "[2]; 1 nmole per hamster, i.v. infusion 7 minutes", "value": 5, "unit": "min"}, {"measurement": "MAP values for treated animals (FIG. 2 legend, apparently baseline)", "setting": "[2]; 1.0 nmole, 7 minutes i.v. infusion, n=5", "value": 93.0, "unit": "mm Hg"}, {"measurement": "return of arterial blood pressure to pre-infusion baseline", "setting": "[2]; 1 nmole, FIG. 2", "value": 9, "unit": "min"}, {"measurement": "reversibility of the hypotensive effect", "setting": "[2]; hamster, in vivo", "value": "fully reversible"}, {"measurement": "untoward effects during infusion", "setting": "[3]", "value": "did not display detectable untoward effects"}, {"measurement": "apparent binding capacity at saturating VIP concentrations", "setting": "PG/PC/CH liposomes", "value": "1 mol VIP/12.5 mol phospholipid"}, {"measurement": "pIC50", "setting": "PG/PC/CH liposomes; 0.26 nM tracer, liposomes 2.4 mM Pi, read-out: IC50, competitive inhibition of partitioning of (Tyr10-125I)VIP into liposomes", "value": 3.25}, {"measurement": "% VIP bound/μmol Pi", "setting": "PG/PC/CH liposomes; VIP 100 nM, PG/PC/CH liposomes", "value": "26.2 ± 3.4% and 26.2%"}, {"measurement": "partition constant derived from the binding isotherm", "setting": "PG/PC/CH liposomes; nominal value, neutral pH", "value": 1400, "unit": "M⁻¹"}, {"measurement": "Binding", "setting": "PG/PC/CH liposomes; [7]", "value": "20.5 ± 1.0", "unit": "nM"}, {"measurement": "% VIP bound/μmol Pi", "setting": "PC/CH liposomes", "value": "12.6±1.5", "unit": "%"}, {"measurement": "% VIP bound/μmole Pi", "setting": "PC/PG liposomes", "value": 24.9, "unit": "%"}, {"measurement": "Encapsulation", "setting": "[4]", "value": "37.5 ± 5.0", "unit": "nM"}, {"measurement": "% VIP released", "setting": "[5]; 1 mM HCl", "value": "3.0 ± 3.5", "unit": "%"}, {"measurement": "% VIP released", "setting": "[5]; 1 mM NaOH", "value": "15.9 ± 4.0", "unit": "%"}, {"measurement": "% VIP released", "setting": "[5]; 25 mM EDTA", "value": "8.1 ± 10.0", "unit": "%"}, {"measurement": "% VIP released", "setting": "[5]; 1% SDS", "value": "81.1 ± 9.6", "unit": "%"}, {"measurement": "% VIP released", "setting": "[5]; 1 M NaCl", "value": "2.7 ± 3.0", "unit": "%"}]}
{"substance": "(tyr^10 -^125 I)VIP: VIP radioiodinated at tyrosine 10, used as tracer (HSDAVFTDNY(125I)TRLLRKQMAVKKYLNSILN-NH2)", "values": [{"measurement": "leakage of (tyr10-125I)VIP from the liposomes", "setting": "[6]", "value": "< 2 % of available radioactivity"}, {"measurement": "binding of radiolabeled VIP by liposomes, % of available peptide", "setting": "PG/PC/CH liposomes", "value": "up to 56.6%"}, {"measurement": "binding of radiolabeled VIP by liposomes, % of available peptide", "setting": "PG/PC/CH liposomes; listed as radiolabeled VIP", "value": "up to 60%"}]}
{"substance": "carboxyfluorescein [CF]", "values": [{"measurement": "Binding", "setting": "PG/PC/CH liposomes; [7]", "value": "0.01 ± 0.001", "unit": "nM"}, {"measurement": "Binding, nM", "setting": "PG/PC/CH liposomes; pre-formed liposomes 2.3 mM Pi, 100 nM CF or 0.2 nM tracer with 100 nM unlabeled VIP, listed as carboxyfluorescein", "value": "very small amounts"}, {"measurement": "Encapsulation", "setting": "[4]", "value": "82.5 ± 7.5", "unit": "nM"}]}
